The target in the test is T1, IKKβ (Homo sapiens, UniProt O14920).
T1 construct: gene IKBKB
T1 sequence (O14920 1-756): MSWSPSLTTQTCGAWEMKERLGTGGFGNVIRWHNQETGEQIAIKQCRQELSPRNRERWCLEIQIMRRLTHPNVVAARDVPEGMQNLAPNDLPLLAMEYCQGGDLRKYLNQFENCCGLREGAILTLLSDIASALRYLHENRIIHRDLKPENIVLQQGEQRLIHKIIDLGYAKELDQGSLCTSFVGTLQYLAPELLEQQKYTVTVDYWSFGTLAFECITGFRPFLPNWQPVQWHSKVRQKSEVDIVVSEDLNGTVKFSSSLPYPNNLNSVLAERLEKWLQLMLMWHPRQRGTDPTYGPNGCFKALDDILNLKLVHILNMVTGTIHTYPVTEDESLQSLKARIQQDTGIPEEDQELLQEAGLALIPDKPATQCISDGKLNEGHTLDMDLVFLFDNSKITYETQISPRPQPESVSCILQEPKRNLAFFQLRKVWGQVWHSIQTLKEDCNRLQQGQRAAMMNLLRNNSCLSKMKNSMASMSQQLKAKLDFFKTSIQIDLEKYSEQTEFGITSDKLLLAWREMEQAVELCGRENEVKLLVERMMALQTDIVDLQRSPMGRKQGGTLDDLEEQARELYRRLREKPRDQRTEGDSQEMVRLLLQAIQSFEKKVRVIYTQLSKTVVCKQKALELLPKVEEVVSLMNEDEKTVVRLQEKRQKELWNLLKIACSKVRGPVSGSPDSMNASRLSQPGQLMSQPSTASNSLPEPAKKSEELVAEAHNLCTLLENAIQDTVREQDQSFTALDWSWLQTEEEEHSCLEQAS
Briefly: ADP-Glo IKKβ kinase assay (Promega), […] ng IKKβ, IKKtide, […] ATP. It counts as biochemical.

SMILES strings stand for the structures.

One may read the IC50 as the concentration needed to halve the response being measured.

`CSc1ccc2c(c1)N(CCC1CCCCN1C)c1ccccc1S2` (stereo not shown) [TDZ, Thioridazine]: the midpoint of inhibition, the IC50, lay at 3.63 nM.

For the origin of these results see article PMC6102213, “Repurposing Thioridazine (TDZ) as an anti-inflammatory agent” (Scientific Reports, 2018).
